According to ChEMBL document CHEMBL1201862, “PubChem BioAssay data set” (2004):
The source made the active and inactive calls. Unless noted, the rule behind the calls is not given here.

How the values were obtained:
[1] = African trypanosome bloodstream form growth inhibition – STIB900 strain, plate reader, cherry pick, dose response (AID 651893); format: functional, cell-based, Trypanosoma brucei rhodesiense; conditions: Trypanosoma brucei
[2] = L6 myocyte viability loss – cell-based, plate reader, cherry-pick, cytotoxicity control, dose response (AID 651896); format: functional
[3] = anti-trypanosomal activity in BESM host cells – imaging, CA-I/72 strain, bovine embryo skeletal muscle, dry powder, dose response (AID 651885); format: functional, cell-based
[4] = antileishmanial activity on axenic amastigotes – plate reader, cherry pick, dose response (AID 651891); format: functional, cell-based; conditions: Leishmania donovani
[5] = Inhibition of T. cruzi Tulahuen strain amastigotes in L-6 muscle cells Measured in Cell-Based and Microorganism Combination System Using Plate Reader - 2138-03_Inhibitor_Dose_CherryPick_Activity.; format: functional; conditions: Rattus norvegicus, L6
[6] = intracellular Trypanosoma cruzi inhibitors in host cells – cell-based, plate reader, cherry-pick samples, set 3, dose response (AID 651818); format: functional;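 also: compounds incubated with infected cells for about four days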
[7] = Inhibition of Plasmodium falciparum NF54 Measured in Cell-Based System Using Plate Reader - 2138-11_Inhibitor_Dose_CherryPick_Activity.; format: functional
Beta-lactamase [8] = biological target: Beta-lactamase (Pseudomonas aeruginosa, UniProt Q79MP6);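 also: biochemical dose-response test of metallo-beta-lactamase enzyme inhibition, read out by epi-absorbance; purified recombinant IMP-1 metallo-beta-lactamase with nitrocefin as substrate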
Chain of Beta-lactamase (Pseudomonas aeruginosa, UniProt Q79MP6) (Q79MP6 whole entry): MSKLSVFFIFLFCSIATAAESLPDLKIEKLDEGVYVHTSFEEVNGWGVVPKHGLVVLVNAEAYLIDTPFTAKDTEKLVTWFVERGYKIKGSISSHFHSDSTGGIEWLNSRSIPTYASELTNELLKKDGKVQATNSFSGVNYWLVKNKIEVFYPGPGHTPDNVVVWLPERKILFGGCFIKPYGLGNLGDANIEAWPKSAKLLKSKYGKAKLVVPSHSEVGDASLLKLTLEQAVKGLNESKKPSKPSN

[9] = biological target: T1, Endoribonuclease toxin MazF (Escherichia coli K-12, UniProt P0AE70); experiment: activation of MazEF endoribonuclease cleavage – biochemical, fluorescence, single-stranded RNA substrate, uHTS hits, dose response (AID 588481); format: functional
T1 sequence (P0AE70 whole entry): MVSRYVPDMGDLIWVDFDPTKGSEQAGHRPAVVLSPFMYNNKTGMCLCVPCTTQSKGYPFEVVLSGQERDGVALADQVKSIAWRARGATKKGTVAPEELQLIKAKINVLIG

Beta-lactamase [10] = biological target: Beta-lactamase (Salmonella choleraesuis (strain SC-B67), UniProt Q5J463)
Chain of Beta-lactamase (Salmonella choleraesuis (strain SC-B67), UniProt Q5J463) (Q5J463 whole entry): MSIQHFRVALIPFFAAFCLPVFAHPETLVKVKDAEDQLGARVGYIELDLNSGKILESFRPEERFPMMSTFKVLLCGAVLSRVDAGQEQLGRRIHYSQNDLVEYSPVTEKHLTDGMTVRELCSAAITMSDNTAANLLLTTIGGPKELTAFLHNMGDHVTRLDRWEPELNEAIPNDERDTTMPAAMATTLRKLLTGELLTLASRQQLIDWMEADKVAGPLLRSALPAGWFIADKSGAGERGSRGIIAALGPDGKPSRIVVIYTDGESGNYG

[11] = biological target: T1, Endoribonuclease toxin MazF; experiment: substrate-only fluorescence increase artefacts – biochemical, single-stranded RNase substrate, counter-screen for MazEF activator project, dose response (AID 588502); format: functional
INS1 = experiment: INS-1E survival protection against cytokine death – cell-based, luminescence, retest, dose response (AID 449756); format: functional; conditions: Rattus norvegicus;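 also: cell death triggered by IL-1 beta plus TNF-alpha plus IFN-gamma mixture; protective hits raise ATP signal compared with cytokine alone wells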
[12] = viability loss in HeLa cells – cytotoxicity control for MgcRacGAP inhibitor project, dose response (AID 624300); format: functional
Streptococcus = experiment: GAS UMAA2166 growth inhibition – luminescence, BacTiterGlo, counter-screen for streptokinase expression inhibitor project, dose response (AID 1915); format: functional, organism-based;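 also: potency for reduction of bacterial viability or growth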
Beta Lactamase = Beta Lactamase (Pseudomonas aeruginosa, UniProt Q932Y6); experiment: BLA reporter interference, concentration series – BLA reporter cells, FRET fluorescence, artefact control for NOD2-RIPK2 interaction inhibitor project, dose response (AID 651552); format: functional, cell-based
Chain of Beta Lactamase (Q932Y6 whole entry, the tested form may be a part): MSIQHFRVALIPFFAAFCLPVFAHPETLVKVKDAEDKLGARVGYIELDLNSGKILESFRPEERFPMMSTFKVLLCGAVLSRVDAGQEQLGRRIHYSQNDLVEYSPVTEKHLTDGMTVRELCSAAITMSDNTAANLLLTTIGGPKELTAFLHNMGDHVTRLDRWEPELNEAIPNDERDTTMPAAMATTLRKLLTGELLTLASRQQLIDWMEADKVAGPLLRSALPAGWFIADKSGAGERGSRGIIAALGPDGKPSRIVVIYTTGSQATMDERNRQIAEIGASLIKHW

[13] = Fluorescence-based cell-based high throughput dose response assay for inhibitors of the interaction of nucleotide-binding oligomerization domain containing 2 (NOD2) and the receptor-interacting serine-threonine kinase 2 (RIPK2).; format: functional; conditions: Homo sapiens
Streptokinase A = biological target: T2, Streptokinase A (Streptococcus pyogenes serotype M1, UniProt P10520); experiment: viability-normalized secreted streptokinase activity reduction – plasminogen activation absorbance, OD405, dose response (AID 1914); format: functional, Streptococcus pyogenes M1 GAS;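 also: secreted streptokinase activity via plasminogen activation per viability signal from cell pellet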
T2 sequence (P10520 whole entry): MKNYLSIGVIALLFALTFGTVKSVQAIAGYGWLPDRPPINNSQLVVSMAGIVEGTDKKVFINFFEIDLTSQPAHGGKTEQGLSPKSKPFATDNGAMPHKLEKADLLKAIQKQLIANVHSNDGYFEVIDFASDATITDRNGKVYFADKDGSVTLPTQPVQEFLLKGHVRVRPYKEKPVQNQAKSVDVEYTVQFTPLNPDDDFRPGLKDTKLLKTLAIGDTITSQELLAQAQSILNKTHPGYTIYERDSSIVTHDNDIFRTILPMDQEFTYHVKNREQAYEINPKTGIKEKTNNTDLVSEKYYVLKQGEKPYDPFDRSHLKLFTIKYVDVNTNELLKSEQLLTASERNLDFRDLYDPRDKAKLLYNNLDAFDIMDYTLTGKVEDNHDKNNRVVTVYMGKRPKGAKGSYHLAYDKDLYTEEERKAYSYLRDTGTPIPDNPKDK

[14] = biological target: T3, Heat shock protein HSP 90-alpha (Homo sapiens, UniProt P07900); experiment: Luminescence-based dose response biochemical high throughput screening assay for inhibitors of the Heat Shock Protein 90 (HSP90). [Related pubchem assays: 1831 (Summary AID.), 1846 (Confirmation screen.), 1789 (Primary screen.)]
[15] = tested on: Streptococcus sp. 'group A'; experiment: Streptococcus pyogenes SK(-)GAS viability under kanamycin – luminescence, BacTiterGlo, confirmation, counter-screen for streptokinase expression inhibitor project, dose response (AID 1900); format: functional, organism-based
[16] = biological target: T4, Rac GTPase-activating protein 1 (Homo sapiens, UniProt Q9H0H5); experiment: blockers of MgcRacGAP-driven Rac1 GTP hydrolysis – biochemical, ADP Hunter fluorescence, primary and confirmatory, confirmation (AID 624330); format: functional
T4 sequence (Q9H0H5 whole entry): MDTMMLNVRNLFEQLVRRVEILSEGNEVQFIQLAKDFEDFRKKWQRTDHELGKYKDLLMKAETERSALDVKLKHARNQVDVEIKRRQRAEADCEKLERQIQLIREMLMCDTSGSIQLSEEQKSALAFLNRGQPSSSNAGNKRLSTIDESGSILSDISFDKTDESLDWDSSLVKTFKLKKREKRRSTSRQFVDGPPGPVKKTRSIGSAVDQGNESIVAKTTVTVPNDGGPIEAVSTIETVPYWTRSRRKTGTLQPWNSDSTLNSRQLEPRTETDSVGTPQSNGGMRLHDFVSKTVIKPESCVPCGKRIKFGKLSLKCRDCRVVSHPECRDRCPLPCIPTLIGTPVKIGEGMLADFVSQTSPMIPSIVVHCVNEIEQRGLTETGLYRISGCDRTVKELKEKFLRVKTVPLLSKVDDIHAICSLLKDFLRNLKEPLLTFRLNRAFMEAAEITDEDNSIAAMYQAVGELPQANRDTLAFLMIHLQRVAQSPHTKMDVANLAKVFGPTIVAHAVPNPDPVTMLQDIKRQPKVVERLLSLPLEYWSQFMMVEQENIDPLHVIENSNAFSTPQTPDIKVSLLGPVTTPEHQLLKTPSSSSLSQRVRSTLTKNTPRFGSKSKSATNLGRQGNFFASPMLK

[17] = biological target: T3, Heat shock protein HSP 90-alpha; format: functional, organism-based
[18] = biological target: T5, Heat shock factor protein 1 (Mus musculus, UniProt P38532); experiment: enhancement of HSF1-driven luciferase signal – cell-based, NIH3T3, luminescence, dose retest, confirmation (AID 435004); format: functional;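 also: stress induced by proteasome inhibitor MG132 added 30 min after compound; luciferase reporter driven by HSF1 response element in NIH3T3 cells; actives raise luminescence as potentiators of the MG132 stress response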
T5 sequence (P38532 whole entry): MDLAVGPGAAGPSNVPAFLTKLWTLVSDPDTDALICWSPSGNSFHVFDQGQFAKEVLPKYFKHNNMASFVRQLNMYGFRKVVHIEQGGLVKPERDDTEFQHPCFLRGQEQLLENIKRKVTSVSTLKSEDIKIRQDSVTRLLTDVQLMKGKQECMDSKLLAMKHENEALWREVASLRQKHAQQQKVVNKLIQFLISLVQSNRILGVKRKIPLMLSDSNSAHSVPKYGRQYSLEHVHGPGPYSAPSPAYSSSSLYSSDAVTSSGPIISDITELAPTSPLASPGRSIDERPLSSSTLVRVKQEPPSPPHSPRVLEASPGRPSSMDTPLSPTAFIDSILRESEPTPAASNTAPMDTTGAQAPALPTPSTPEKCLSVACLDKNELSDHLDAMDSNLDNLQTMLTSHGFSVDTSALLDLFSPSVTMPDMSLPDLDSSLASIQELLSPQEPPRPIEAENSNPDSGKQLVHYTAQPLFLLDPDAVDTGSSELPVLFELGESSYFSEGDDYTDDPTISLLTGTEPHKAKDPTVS

[19] = biological target: T6, Low molecular weight phosphotyrosine protein phosphatase (Homo sapiens, UniProt P24666); format: functional; conditions: read-out: IC50_Mean
T6 sequence (P24666 whole entry): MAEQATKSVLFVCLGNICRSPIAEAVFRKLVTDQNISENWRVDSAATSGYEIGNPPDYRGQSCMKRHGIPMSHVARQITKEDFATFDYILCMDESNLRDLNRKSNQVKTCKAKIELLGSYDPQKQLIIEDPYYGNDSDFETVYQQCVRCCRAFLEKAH

[20] = biological target: T6, Low molecular weight phosphotyrosine protein phosphatase; format: functional; conditions: read-out: IC50_Mean; remark: listed apart in the source

C[C@@H]1CN([C@@H](C)CO)C(=O)c2cccc(NC(=O)c3ccncc3)c2O[C@H]1CN(C)Cc1ccccc1
IC50 [1]: 5.33 µM (inactive)
IC50 [2]: > 100 µM (inactive)
IC50 [3]: 10 µM (inconclusive)
IC50 [4]: > 100 µM (inactive)
IC50 [5]: 4.77 µM (inactive)
AC50 [6]: 0.08 µM (active)
IC50 [7]: 4.77 µM (inactive)

CCOc1cc2c(cc1/C=C/c1noc(C)c1[N+](=O)[O-])OC(C)C2 (centres undefined)
IC50 (Beta-lactamase [8]): > 59.6 µM (inactive)
EC50 [9]: > 99 µM (inactive)
IC50 (Beta-lactamase [10]): > 59.6 µM (inactive)
EC50 [11]: > 99 µM (inactive)

O=[N+]([O-])/C=C/c1ccc2c(ccn2Cc2ccccc2)c1
AC50 (INS1): 6.82 µM (active)
CC50 [12]: 42 µM (active)
EC50 (Streptococcus): 11.6 µM (active)
IC50 (Beta Lactamase): 30 µM (inactive)
IC50 [13]: 1.74 µM (active)
EC50 (Streptokinase A): 6.15 µM (active)
IC50 [14]: 2.98 µM (active)
EC50 [15]: 2.91 µM (active)
IC50 [16]: 23.3 µM (active)
AC50 [17]: 3.42 µM (active)
EC50 [18]: 5.7 µM (active)

CC(=O)Nc1ccc(CNc2nc(NCC3CC3)nc3ccsc23)cc1
IC50 [19]: 17 µM (active)
IC50 [20]: 12.6 µM (active)
